In US20040259942A1, “Modulation of stat activity” (priority 2001, published 2004):

Assays:
STAT3 [1] = test: Weak constitutive STAT3 DNA-binding in serum-starved cells (EMSA supershift); assay type: cell-based, human
MDA-MB-468 cells = test: Cell proliferation assay (cell counting); assay type: cell-based, human; details: for effect on proliferation over 48 hours: PD 153035 100 nM, PD 168393 2 μM
Description: (§1) Equal numbers of BR293 and MDA-MB-468 cells were seeded in MEM containing 10% FCS into 10 cm dishes. […]. For the 48 time points, fresh medium containing the appropriate inhibitor was applied to the cells after 24 hours. Controls were allowed to grow for 48 hours in the absence of inhibitor. Thereafter, all the cells were washed twice with ice cold PBS, harvested and counted under a phase-contrast microscope. Values are expressed as averages+S.D. (n=3).
(§2) Equal numbers of BR293, MCF-10F, MCF-7, MDA-MB-468, HKEK293 and COS1 cells were seeded in the appropriate growth medium into 10 cm dishes. Cells were allowed to grow in the presence of various concentrations of OdDHL or OHHL for 24 or 48 hours. For the 48-hour time points, fresh medium containing the appropriate inhibitor was applied to the cells after 24 hours. Controls were allowed to grow for 48 hours in the absence of inhibitor. Thereafter, all the cells were washed twice with ice cold PBS, harvested and counted under a phase-contrast microscope. Values are expressed as averages ±S.D. (n=3).

BR293 cells = test: Cell proliferation assay (cell counting); assay type: cell-based, human; details: for effect on proliferation over 48 hours: PD 153035 100 nM, PD 168393 2 μM
Description: as §1, §2

STAT3 [2] = test: Serum-induced STAT3 tyrosine phosphorylation (immunoblot); assay type: cell-based, human; details: BR293 cells; full medium, 2 hour time course; AG490 pre-treatment
Description: (§3) For immunoprecipitation and immunoblotting experiments, cells were grown to confluence in 10 cm dishes and maintained in full medium or starved in serum-free medium overnight before the application of appropriate stimuli. Lysates were prepared in TBSN buffer (50 mM Tris-HCl pH7.5, 150 mM NaCl, 1 mM EDTA, 1% NP-40) supplemented with protease inhibitors (1 mM Na3 VO4, 10 mM Na4P2O7, 10 mM NaF, 5 mM EGTA, 10 mM Benzamidine, 0.2 mM PMSF and 1 μg/ml each of leupeptin, aprotinin, pepstatin). Lysates were cleared by centrifugation at 16,000×g for 10 minutes and used directly for immunoprecipitations or stored at −20° C. for further use.
(§4) Equal amounts of lysates were incubated with the appropriate antibody for 2 hours at 4° C.
(§5) Immune complexes were then allowed to bind to protein A-Sepharose beads for 1 hour at 4° C. and collected by centrifugation. Immunoprecipitates were washed three times in 100 mM Tris-HC1 pH 7.5, […], 1 mM EDTA, 0.1 mM PMSF, 0.5% NP-40. Thereafter, samples were taken up in sodium dodecyl sulphate (SDS) loading buffer and boiled for 5 min.
Samples were separated by electrophoresis through 6% polyacrylamide-SDS gels. Proteins were then transferred to polyvinylidene difluoride (PVDF) membranes with a semi-dry electroblotting apparatus. The membranes were incubated with appropriate primary antibodies at room temperature for 1 hour or 4° C. overnight according to suppliers' instructions, washed and stained with horseradish peroxidase-coupled secondary antibodies. The membranes were developed with an enhanced chemiluminescence kit (Amersham).
as §3, with “Na3VO4,” for “Na3 VO4,”, “aprotinin and” for “aprotinin,”, “use. AG490 was purchased from Sigma; PD153035 was provided by Glaxo-Smith-Kline and PD168393 was purchased from Calbiochem.” for “use.”
Equal amounts of lysates were incubated with the appropriate antibody for 2 hours at 4° C. Immune complexes were then allowed to bind to protein A-Sepharose beads for 1 hour at 4° C. and collected by centrifugation. Immunoprecipitates were washed three times in 10 mM Tris-HCl pH 7.5, 100 mM NaCl, 1 mM EDTA, 0.1 mM PMSF, 0.5% NP-40. Thereafter, samples were taken up in sodium dodecyl sulphate (SDS) loading buffer and boiled for 5 min.

MCF-10F cells = details: previously shown (refs 5, 11); cited from earlier work
STAT3 [3] = test: STAT3 activation by conditioned medium (CM) from serum-stimulated BR293 cells; assay type: cell-based, human; details: serum-starved BR293 cells treated with AG490
Description: OdDHL blocks the autocrine release of mitogens from BC cells (a) Equal numbers of BR293 cells were cultured in MEM alone, serum-free MEM conditioned by serum-stimulated BR293 cells for 2 hours, or the same supplemented with 5% FCS, as indicated. After 24 hours [^3H]-thymidine was added to the medium. After a further 18 hours, cells were harvested and analysed for incorporation of ^3H. Error bars denote SD (n=4). (b) BR293 cells were serum-starved (lane 1) or starved and stimulated with 10% FCS for 2 hours directly (lane 2) or after pretreatment with α-amanitin (1004/ml) for 2.5 hours (lane 3) or actinomycin D ([…]) for 10 min (lane 4). […] Cell lysates were prepared and analysed by Western blotting as described in the legend to FIG. 1a. […] Lysates were prepared from all the cells and analysed by Western blotting as described in the legend to FIG. 1a.
Serum-starved BR293 cells were stimulated with 10% foetal calf serum (FCS) and, after 2 hours, half the cells were harvested while the other cells were washed thoroughly and incubated for a further 4 hours in serum-free medium. […] Nuclear extracts were made from all the cells and analysed for STAT DNA-binding. […]

JAK2 = molecular target: T1, JAK2 (Homo sapiens, UniProt O60674); test: Serum-induced JAK2 tyrosine phosphorylation (immunoblot); assay type: cell-based; details: BR293 cells; 2 hour time course; AG490 pre-treatment
T1 construct: endogenous in cells; host or cells: BR293
T1 sequence (O60674 whole entry): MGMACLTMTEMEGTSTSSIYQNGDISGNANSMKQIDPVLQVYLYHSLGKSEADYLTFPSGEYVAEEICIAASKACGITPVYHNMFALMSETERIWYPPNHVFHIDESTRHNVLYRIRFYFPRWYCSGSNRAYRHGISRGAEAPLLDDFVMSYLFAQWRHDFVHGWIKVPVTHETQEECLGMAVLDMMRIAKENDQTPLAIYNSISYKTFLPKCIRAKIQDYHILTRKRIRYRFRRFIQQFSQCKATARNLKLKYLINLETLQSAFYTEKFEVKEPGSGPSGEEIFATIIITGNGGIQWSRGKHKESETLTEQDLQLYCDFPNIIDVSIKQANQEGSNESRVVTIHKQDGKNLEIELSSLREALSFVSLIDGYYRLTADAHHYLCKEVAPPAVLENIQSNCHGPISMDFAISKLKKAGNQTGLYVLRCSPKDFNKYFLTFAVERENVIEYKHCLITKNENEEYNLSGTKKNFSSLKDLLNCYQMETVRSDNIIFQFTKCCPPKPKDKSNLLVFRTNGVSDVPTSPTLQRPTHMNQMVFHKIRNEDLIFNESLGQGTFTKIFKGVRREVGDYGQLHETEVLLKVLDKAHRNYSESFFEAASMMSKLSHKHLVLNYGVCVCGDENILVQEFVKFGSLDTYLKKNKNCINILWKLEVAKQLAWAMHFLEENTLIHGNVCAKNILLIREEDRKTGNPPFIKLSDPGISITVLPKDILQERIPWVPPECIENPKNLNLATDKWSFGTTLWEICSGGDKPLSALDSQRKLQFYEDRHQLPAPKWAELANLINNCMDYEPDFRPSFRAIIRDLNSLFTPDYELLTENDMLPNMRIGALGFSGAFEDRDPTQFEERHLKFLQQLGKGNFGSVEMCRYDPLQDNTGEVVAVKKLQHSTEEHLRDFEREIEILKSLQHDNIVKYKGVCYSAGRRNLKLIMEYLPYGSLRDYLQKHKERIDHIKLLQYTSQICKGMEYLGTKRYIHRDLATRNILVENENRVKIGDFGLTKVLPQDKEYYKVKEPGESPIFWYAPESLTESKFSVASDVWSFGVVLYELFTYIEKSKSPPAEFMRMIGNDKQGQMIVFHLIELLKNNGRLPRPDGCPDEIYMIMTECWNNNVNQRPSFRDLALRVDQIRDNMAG
Description: as §3, §4, §5
(§6) Samples were separated by electrophoresis through 6% polyacrylamide-SDS gels. Proteins were then transferred to polyvinylidene difluoride (PVDF) membranes with a semi-dry electroblotting apparatus. […]

BC cell = details: ref (7); cited from earlier work
ErbB3 = test: Tyrosine phosphorylation of ErbB3: immunoprecipitation and anti-phosphotyrosine immunoblot; assay type: cell-based, human
Description: as §3, §4, §5, §6

ErbB2 = test: Tyrosine phosphorylation of ErbB2: immunoprecipitation and anti-phosphotyrosine immunoblot; assay type: cell-based, human; details: EGF
Description: as §3, §4, §5, §6

## COc1cc2ncnc(Nc3cccc(Br)c3)c2cc1OC [PD 153035]
STAT3 [1]; MDA-MB-468 cells, 100 nM
  weak, heterogeneous DNA-binding by STAT3 in extracts from serum-starved cells: had no effect
MDA-MB-468 cells
  effect on proliferation over 48 hours: no effect on their proliferation
BR293 cells
  effect on proliferation over 48 hours: no effect on their proliferation

## C=CC(=O)Nc1ccc2ncnc(Nc3cccc(Br)c3)c2c1 [PD 168393]
MDA-MB-468 cells
  effect on proliferation over 48 hours: no effect on their proliferation
BR293 cells
  effect on proliferation over 48 hours: no effect on their proliferation

## N#C/C(=C/c1ccc(O)c(O)c1)C(=O)NCc1ccccc1 [AG490]
STAT3 [2]
  serum-stimulated STAT3 tyrosine phosphorylation: blocked
MCF-10F cells
  sensitivity to JAK inhibitor: insensitive
STAT3 [3]
  STAT3 activation by conditioned medium from BR293 cells: no inhibition was observed
STAT3 [1]; BT20 and MDA-MB-468 cells, 100 μM
  weak STAT3 DNA-binding: unaffected
MDA-MB-468 cells; AG490 100 μM, over 48 hours
  reduction of cell proliferation: > 75%
BR293 cells; AG490 100 μM, over 48 hours
  reduction of cell proliferation: > 75%
JAK2
  serum-stimulated tyrosine phosphorylation of JAK2: blocked
BC cell
  BC cell proliferation: inhibits BC cell proliferation

## EGF: Epidermal Growth Factor, used as stimulus
ErbB3; cell line co-expressing ErbB1, first value printed (cell line not given)
  induction of ErbB3 tyrosine phosphorylation: 6.6 fold
ErbB3; cell line co-expressing ErbB1, second value printed (cell line not given)
  induction of ErbB3 tyrosine phosphorylation: 6.3 fold
ErbB2; BR293 cells
  stimulation of ErbB2 tyrosine phosphorylation: 3.2 fold
ErbB2; T47D cells
  stimulation of ErbB2 tyrosine phosphorylation: 5.7 fold
